Source: patent US6841657B2, “Inhibitors of HIV membrane fusion” (priority 1998, dated 2005)
Positions of bridges follow the written chain, without caps; N, C: chain ends. Non-standard residues stand in square brackets, D forms with d.

Key:
[1] = test system: recombinant luciferase-expressing HIV-1; type: cell-based; conditions: infectivity assay
Experimental: The potency of C34 peptides in inhibiting viral infection and the HIV-1 infection inhibitory activity of the D-peptides were assayed using recombinant luciferase-expressing HIV-1 (Chen, B. K. et al., J. Virol., 68:654 (1994); Malashkevich, V. N., et al., Proc. Natl. Acad. Sci., USA, 95:9134 (1998)).
The apparent melting temperatures (Tm) were estimated from the thermal dependence of the CD signal at 222 nm. Inhibition of viral entry was measured in a cell-culture infection assay using recombinant luciferase-expressing HIV-1. Inhibition of cell-cell fusion was measured in a syncytium assay. The means and standard errors are from triplicate trials.

[2] = test system: hydrophobic pocket of IQN17 (gp41); experiment: 1H NMR assay of binding to the IQN17 hydrophobic pocket; design: species or system HIV-1; conditions: 1:1 complex with IQN17, 25° C., 100 mM NaCl, 50 mM sodium phosphate pH 7.5, D2O
Excerpt: NMR experiments were used to assay the binding of each D-peptide to IQN17. The single tryptophan residue of IQN17 (denoted Trp-571) provides an excellent probe of specific binding to the hydrophobic pocket of gp41. […] To test a compound for binding to the gp41 pocket, two one-dimensional ^1H NMR measurements were made on samples in deuterated buffers. First, a reference (control) spectrum of IQN17 was taken, identifying the Trp571 chemical shifts in the unbound form. A second spectrum was acquired on a sample containing both IQN17 and the compound in question. An optional third spectrum of the D-peptide (or other small molecule, or mix of molecules) was also taken. ^1H NMR experiments were performed on a Bruker AMX 500 spectrometer. Data was processed in Felix 98.0 (MSI) on Silicon Graphics computers, and all spectra were referenced to DSS. All experiments were performed at 25° C. in 100 mM NaCl, 50 mM sodium phosphate (pH 7.5). All buffers used were >99.7% D2O, to remove overlapping resonances from exchangeable backbone and side chain protons. Solute concentrations ranged from 0.3-1.0 mM for individual peptides, 0.8-1.0 mM for 1:1 commplexes of IQN17 with each D-peptide.
Simple binding of two or more components is expected to result both in broader peaks (due to the increased size of the complex) and in changes in chemical shifts (due to the different chemical environments experienced by nuclei in free and bound forms). Specific binding to the hydrophobic pocket is indicated by a change in the Trp-571 chemical shifts, as well as by a broadening of peaks. Binding can also be indicated by similar changes in the chemical shifts and peak widths of the molecule (peptides and small organic molecules, for example) assayed. […] All IQN17/D-peptide complexes studied gave similar results, though varying in the degree of chemical shift dispersion (FIG. 9B). Thus, binding was indicated in all cases.
To confirm that the strongly upfield-shifted peaks all correspond to a single sidechain (almost certainly Trp-571), two-dimensional NMR (TOCSY) experiments were performed on each of the IQN17/D-peptide complexes. As expected, the TOCSY experiments indicate that in each complex, the strongly upfield-shifted resonances all belong to the same aromatic side chain, identified as a group of four scalar-coupled protons. For several of the complexes studied, NOESY experiments also indicate contact between this sidechain and other (unassigned) aromatic groups, as expected from the IQN17/D10pep1 structure. Not all of the potential NOE crosspeaks could be resolved, due to intense spectral overlap in the 6.8-7.6 ppm region. 2D NOESY and TOCSY experiments as described in J. Cavanaugh, W. J. Fairbrother, A. G. Palmer, N. J. Skelton, Protein NMR Spectroscopy: Principles and Practice (1996) were performed on samples of IQN17 and of each complex, with mixing times ranging between 30-90 ms (NOESY) and 30-70 ms (TOCSY). Spectral widths of 11,111 Hz and 5555 Hz were used in the acquisition (t2) and indirect (t1) dimensions, respectively. TOCSY experiments employed the DIPSI-2rc mixing sequence (J. Cavanaugh, M. Rance, J. Magn. Reson. Serv. A., 105:328 (1993)).

[3] = test system: syncytia formation between Chinese hamster ovary cell expressing HXB2 envelope and HeLa-CD4-LTR-Beta-gal cells; conditions: two additional N-terminal lysines vs parent D-peptide
Experimental: In each instance, a blocking group (e.g., an acetyl group) was present at the N terminus and a CONH2 (amide) was present at the C-terminus.
Inhibition of cell/cell fusion (i.e., syncytia formation) was assayed by co-culturing Chinese hamster ovary cell expressing HXB2 envelope (K. Kozarsky, et al., J. Acquir. Immune. Defic. Syndr., 2:163 (1989) and the HeLa-CD4-LTR-Beta-gal cells (M. Emerman, NIH AIDS Reagent program) in the presence of varying concentration of peptide. When mixed, these cells form syncytia, or multi-nucleated cells, which express β-galactosidase. Approximately twenty hours after co-culturing the cells, the monolayers were stained with 5-bromo-4-chloro-3-indolyl-β-D-galactoside to visualize the syncytia. The syncytia are visualized with a microscope and counted manually (a syncytia is scored as a fused cell containing three or more nuclei). The IC50 was calculated from fitting the data to a Langmuir equation [y=k/(1+[peptide]/IC50)+x], where y=number of syncytia and k and x are scaling constants.

HIV-1 = conditions: Phase I clinical trial; cited from earlier work

| Substance | binding to the hydrophobic pocket of IQN17 [2] | also measured |
| --- | --- | --- |
| Ac-GACEARHREWAWLCAA-CONH2 (Ac-G[dA][dC][dE][dA][dR][dH][dR][dE][dW][dA][dW][dL][dC][dA][dA]-NH2; disulfide 3-14 (inferred)) [Peptide D10pep1] | contact the pocket with very similar binding interfaces | inhibition of infection of cells [1]: inhibit infection of cells |
| Ac-KKGACEARHREWAWLCAA-CONH2 (Ac-KKG[dA][dC][dE][dA][dR][dH][dR][dE][dW][dA][dW][dL][dC][dA][dA]-NH2; disulfide 5-16 (inferred); not fully specified (residues 1, 2); printed as Ac-KKGACEARHREWAWLCAA-CONH2) [Peptide D10pep1a] | broader peaks and dramatically different chemical shifts | IC50 for inhibition of syncytia formation relative to parent peptide without the added lysines [3]: approximately 2 fold |
| Ac-KKGACGLGQEEWFWLCAA-CONH2 (Ac-KKG[dA][dC]G[dL]G[dQ][dE][dE][dW][dF][dW][dL][dC][dA][dA]-NH2; disulfide 5-16 (inferred); not fully specified (residues 1, 2); printed as Ac-KKGACGLGQEEWFWLCAA-CONH2) [Peptide D10pep3] | contact the pocket with very similar binding interfaces |  |
| Ac-KKGACMRGEWEWSWLCAA-CONH2 (Ac-KKG[dA][dC][dM][dR]G[dE][dW][dE][dW][dS][dW][dL][dC][dA][dA]-NH2; disulfide 5-16 (inferred); not fully specified (residues 1, 2); printed as Ac-KKGACMRGEWEWSWLCAA-CONH2) [Peptide D10pep10] | contact the pocket with very similar binding interfaces |  |
| Ac-KKGACPPLNKEWAWLCAA-CONH2 (Ac-KKG[dA][dC][dP][dP][dL][dN][dK][dE][dW][dA][dW][dL][dC][dA][dA]-NH2; disulfide 5-16 (inferred); not fully specified (residues 1, 2); printed as Ac-KKGACPPLNKEWAWLCAA-CONH2) [Peptide D10pep12] | contact the pocket with very similar binding interfaces |  |
| enfuvirtide |  | antiviral activity in vivo (HIV-1): reduced viral loads |
